From US12157730B2, “Heteroaryl derivative, method for producing same, and pharmaceutical composition comprising same as effective component” (VORONOI INC., priority 2019, dated 2024) come the findings set out here.

Each structure is given as a SMILES string.

The target in this assay is T1, Ba/F3 cell EGFR Exon20 ins NPH (Homo sapiens, UniProt P00533, INS773NPH).
T1 construct: expressed in transfected cells; host or cells: Ba/F3
Nature of the assay: Ba/F3 cell proliferation suppression, EGFR Exon20 ins NPH. The class given is cell-based. The conditions noted are these: GI50 class; Ba/F3 cell line with NPH inserted at Exon20 of EGFR; 72 hours. Put shortly:
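Cells were seeded 24 h before dosing and then treated for 72 hours with compound at final concentrations of 0.3 nM to 50 um. Live cells were measured by CellTiter-Glo luminescence, and GI50 values were derived from growth ratio relative to control across three repeats.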
On to `C=CC(=O)Nc1cc(Nc2cc(N3OCC[C@@H]3c3cc(F)cc(F)c3)ncn2)c(OC)cc1N1CCC(N2CCN(C)CC2=O)CC1` [compound 722, N-(5-((6-((R)-3-(3,5-difluorophenyl)isoxazolidine-2-yl)pyrimidine-4-yl)amino)-4-methoxy-2-(4-(4-methyl-2-oxopiperazine-1-yl)piperidine-1-yl)phenyl)acrylamide], for which the “Ba/F3 (NPH) Activity” value is recorded as “B (50 nM ≤ GI50 < 500 nM)”.

Turning to `C=CC(=O)Nc1cc(Nc2cc(N3OCC[C@@H]3c3cc(F)cc(F)c3)ncn2)c(OC)cc1N1CCC(N2C[C@H]3CCN(C)[C@H]3C2)CC1` [compound 445, N-(5-((6-((R)-3-(3,5-difluorophenyl)isoxazolidine-2-yl)pyrimidine-4-yl)amino)-4-methoxy-2-(4-((3aR,6aR)-1-methylhexahydropyrrolo [3,4-b]pyrrole-5(1H)-yl)piperidine-1-yl)phenyl)acrylamide], the “Ba/F3 (NPH) Activity” value is recorded as “A (GI50 < 50 nM)”.

For the molecule `C#Cc1cccc([C@H]2CCON2c2cc(Nc3cc(NC(=O)C=C)c(N4CCC(N5CCC(N(C)C)CC5)CC4)cc3OC)ncn2)c1` [compound 655, N-(2-(4-(dimethylamino)-[1,4'-bipiperidine]-1'-yl)-5-((6-((R)-3-(3-ethynylphenyl)isoxazolidine-2-yl)pyrimidine-4-yl)amino)-4-methoxyphenyl) acrylamide], the “Ba/F3 (NPH) Activity” value is “B (50 nM ≤ GI50 < 500 nM)”.

For `C=CC(=O)Nc1cc(Nc2cc(N3OCC[C@@H]3c3cccc(Cl)c3F)ncn2)c(OC)cc1N1CCC(N2CCC3(CC2)CC3)CC1` [compound 355, N-(2-(4-(6-azaspiro[2.5]octan-6-yl)piperidine-1-yl)-5-((6-((R)-3-(3-chloro-2-fluorophenyl)isoxazolidine-2-yl)pyrimidine-4-yl)amino)-4-methoxyphenyl) acrylamide], the “Ba/F3 (NPH) Activity” value is “A (GI50 < 50 nM)”.

As for `C=CC(=O)Nc1cc(Nc2cc(N3OCC[C@@H]3c3cccc(Cl)c3F)ncn2)c(OC)cc1N1CCC(N(C)C)CC1` [compound 790, N-(5-((6-((R)-3-(3-chloro-2-fluorophenyl)isoxazolidine-2-yl)pyrimidine-4-yl)amino)-2-(4-(dimethylamino)piperidine-1-yl)-4-methoxyphenyl) acrylamide], the “Ba/F3 (NPH) Activity” value is “A (GI50 < 50 nM)”.

In the case of `C=CC(=O)Nc1cc(Nc2cc(N3OCC[C@@H]3c3ccc(F)c(Cl)c3)ncn2)c(OC)cc1N1CCC(N2CCN(C)[C@H](C)C2)CC1` [compound 901, N-(5-((6-((R)-3-(3-chloro-4-fluorophenyl)isoxazolidine-2-yl)pyrimidine-4-yl)amino)-2-(4-((R)-3,4-dimethylpiperazine-1-yl)piperidine-1-yl)-4-methoxyphenyl) acrylamide], the “Ba/F3 (NPH) Activity” value is on record as “A (GI50 < 50 nM)”.

Turning to `C=CC(=O)Nc1cc(Nc2cc(N3OCC[C@@H]3c3cccc4ccccc34)ncn2)c(OC)cc1N1CCC(N2CCN(C(C)C)CC2)CC1` [compound 490, N-(2-(4-(4-isopropylpiperazine-1-yl)piperidine-1-yl)-4-methoxy-5-((6-((R)-3-(naphthalene-1-yl)isoxazolidine-2-yl)pyrimidine-4-yl)amino)phenyl)acrylamide], the “Ba/F3 (NPH) Activity” value is recorded as “A (GI50 < 50 nM)”.

`C=CC(=O)Nc1cc(Nc2cc(N3OCC[C@H]3c3c(F)cccc3F)ncn2)c(OC)cc1N1CCC(N2CCN(C(C)=O)CC2)CC1` [compound 310, N-(2-(4-(4-acetylpiperazine-1-yl)piperidine-1-yl)-5-((6-((S)-3-(2,6-difluorophenyl)isoxazolidine-2-yl)pyrimidine-4-yl)amino)-4-methoxyphenyl) acrylamide]: the “Ba/F3 (NPH) Activity” value is given as “C (500 nM ≤ GI50 < 5000 nM)”.

Take `C=CC(=O)Nc1cc(Nc2cc(N3OCC[C@@H]3c3cccc(C#N)c3)ncn2)c(OC)cc1N1CCN(CC)CC1` [compound 396, N-(5-((6-((R)-3-(3-cyanophenyl)isoxazolidine-2-yl)pyrimidine-4-yl)amino)-2-(4-ethylpiperazine-1-yl)-4-methoxyphenyl) acrylamide]: the “Ba/F3 (NPH) Activity” value is recorded as “B (50 nM ≤ GI50 < 500 nM)”.

For `C=CC(=O)Nc1cc(Nc2cc(N3OCC[C@@H]3c3cccc(OC)c3)ncn2)c(OC)cc1N1CCC(N2C[C@@H]3C[C@H]2CO3)CC1` [Example 27, N-(2-(4-((1S,4S)-2-oxa-5-azabicyclo[2.2.1]heptane-5-yl)piperidine-1-yl)-4-methoxy-5-((6-((R)-3-(3-methoxyphenyl)isoxazolidine-2-yl)pyrimidine-4-yl)amino)phenyl) acrylamide], the “Ba/F3 (NPH) Activity” value is reported as “A (GI50 < 50 nM)”.

As for `C=CC(=O)Nc1cc(Nc2cc(N3OCC[C@H]3c3c(F)cccc3F)ncn2)c(OC)cc1N1CCC(N2CCN(C3CC3)CC2)CC1` [Example 129, N-(2-(4-(4-cyclopropylpiperazine-1-yl)piperidine-1-yl)-5-((6-((S)-3-(2,6-difluorophenyl)isoxazolidine-2-yl)pyrimidine-4-yl)amino)-4-methoxyphenyl) acrylamide], the “Ba/F3 (NPH) Activity” value is “C (500 nM ≤ GI50 < 5000 nM)”.

`C=CC(=O)Nc1cc(Nc2cc(N3OCC[C@@H]3c3cccc(F)c3)ncn2)c(OC)cc1N1CCC(N2C[C@@H]3C[C@H]2CO3)CC1` [Example 244, N-(2-(4-((1S,4S)-2-oxa-5-azabicyclo[2.2.1]heptane-5-yl)piperidine-1-yl)-5-((6-((R)-3-(3-fluorophenyl)isoxazolidine-2-yl)pyrimidine-4-yl)amino)-4-methoxyphenyl) acrylamide]: the “Ba/F3 (NPH) Activity” value is “A (GI50 < 50 nM)”.

Turning to `C=CC(=O)Nc1cc(Nc2cc(N3OCC[C@@H]3c3ccc(Cl)cc3)ncn2)c(OC)cc1N1CCC(N2C[C@H]3C[C@@H]2CO3)CC1` [compound 867, N-(2-(4-((1R,4R)-2-oxa-5-azabicyclo [2.2.1]heptane-5-yl)piperidine-1-yl)-5-((6-((R)-3-(4-chlorophenyl)isoxazolidine-2-yl)pyrimidine-4-yl)amino)-4-methoxyphenyl) acrylamide], the “Ba/F3 (NPH) Activity” value is given as “A (GI50 < 50 nM)”.

In the case of `C=CC(=O)Nc1cc(Nc2cc(N3OCC[C@@H]3Cc3cccc(N(C)C)c3)ncn2)c(OC)cc1N1CCC(N2CCN(C3CC3)[C@H](C)C2)CC1` [compound 1046, N-(2-(4-((R)-4-cyclopropyl-3-methylpiperazine-1-yl)piperidine-1-yl)-5-((6-((S)-3-(3-(dimethylamino)benzyl)isoxazolidine-2-yl)pyrimidine-4-yl)amino)-4-methoxyphenyl) acrylamide], the “Ba/F3 (NPH) Activity” value is “B (50 nM ≤ GI50 < 500 nM)”.

As to `C=CC(=O)Nc1cc(Nc2cc(N3OCC[C@@H]3c3cccc4ccccc34)ncn2)c(OC)cc1N1CCC(N2CCO[C@@H](C)C2)CC1` [compound 535, N-(4-methoxy-2-(4-((S)-2-methylmorpholino)piperidine-1-yl)-5-((6-((R)-3-(naphthalene-1-yl)isoxazolidine-2-yl)pyrimidine-4-yl)amino)phenyl)acrylamide], the “Ba/F3 (NPH) Activity” value is reported as “A (GI50 < 50 nM)”.

As to `C=CC(=O)Nc1cc(Nc2cc(N3OCC[C@@H]3c3ccc(F)cc3F)ncn2)c(OC)cc1N1CCN(C2COC2)CC1` [compound 383, N-(5-((6-((R)-3-(2,4-difluorophenyl)isoxazolidine-2-yl)pyrimidine-4-yl)amino)-4-methoxy-2-(4-(oxetane-3-yl)piperazine-1-yl)phenyl)acrylamide], the “Ba/F3 (NPH) Activity” value was “A (GI50 < 50 nM)”.
